Assay [1] has as its system phospho-p90 RSK (RSK1 Thr359/Ser363) in A375 (Braf V600E) cells. Kind of assay: Phospho-p90 RSK ELISA using A375 (Braf V600E) cells. The following applies: Homo sapiens, A-375, 2 hours compound treatment, read-out: Cellular Phospho-p90RSK IC50. Type of assay: cell-based.
Assay [2] concerns A375 cells. Put plainly: Tumor cell line proliferation assay (CellTiter Glo), A375. The following applies: Homo sapiens, A-375, 96 h, read-out: A375 (V599E) Cell Proliferation IC50. The assay is classed as cell-based. (In general: ATP-based viability assays read luminescence as a measure of living cells.)

With `Cc1cc(-c2n[nH]c3cc4c(cc23)CN([C@@H]2CN(CC(F)(F)F)C[C@H]2c2cccs2)C(=O)N4)ccn1` (mixture of isomers) [Example 321], the IC50 in assay [1] was at most 250 nM; in assay [2] it was 250 to 1000 nM. In the case of `Cc1cc(-c2n[nH]c3cc4c(cc23)CN([C@@H]2CN(CC(F)F)C[C@H]2c2ccccc2)C(=O)N4)ccn1` (mixture of isomers) [Example 362], the IC50 in assay [1] and in assay [2] was at most 250 nM in each case. As for `Cc1cc(-c2n[nH]c3cc4c(cc23)CN([C@@H]2CN(CC#N)C[C@H]2c2ccccc2)C(=O)N4)ccn1` (mixture of isomers) [Example 366], the figures for the IC50 in assay [1] and in assay [2] were at most 250 nM and over 1000 nM, respectively. Turning to `Cc1cc(-c2n[nH]c3cc4c(cc23)CN([C@@H]2CN(C)C[C@H]2c2ccccc2)C(=O)N4)ccn1` (racemic) [Example 241], the IC50 in assay [1] and in assay [2] was at most 250 nM in each case. With `Cc1cc(-c2n[nH]c3cc4c(cc23)CN([C@@H]2CN(C)C[C@H]2c2ccccc2)C(=O)N4)cc(C)n1` (racemic) [Example 248], the IC50 in assay [1] and in assay [2] was at most 250 nM throughout. Consider `CCN1C[C@@H](N2Cc3cc4c(-c5ccnc(C)c5)n[nH]c4cc3NC2=O)[C@H](c2ccccc2)C1` (racemic) [Example 278], for which the IC50 in assay [1] and in assay [2] was at most 250 nM each time. Regarding `Cc1cc(-c2n[nH]c3cc4c(cc23)CN([C@@H]2CN(C(C)C)C[C@H]2c2ccccc2)C(=O)N4)ccn1` (racemic) [Example 279], the IC50 in assay [1] and in assay [2] was at most 250 nM in each case. Regarding `Cc1cc(-c2n[nH]c3cc4c(cc23)CN([C@@H]2CN(C)C[C@H]2c2ccc(F)cc2)C(=O)N4)cc(C)n1` (racemic) [Example 305], the IC50 in assay [1] and in assay [2] was at most 250 nM in each case. As for `Cc1cc(-c2n[nH]c3cc4c(cc23)CN([C@@H]2CN(C)C[C@H]2c2ccccc2F)C(=O)N4)cc(C)n1` (racemic) [Example 306], the IC50 in assay [1] and in assay [2] was at most 250 nM in each case.

Take `Cc1cc(-c2n[nH]c3cc4c(cc23)CN([C@@H]2CN(CC(F)(F)F)C[C@H]2c2ccccc2F)C(=O)N4)ccn1` (racemic) [Example 311]: the results for the IC50 in assay [1] and in assay [2] were at most 250 nM and 250 to 1000 nM, respectively. Consider `COc1ccc(-c2n[nH]c3cc4c(cc23)CN(Cc2cc(F)cc(F)c2)C(=O)N4)cn1` [Example 92], for which the IC50 was at most 250 nM in assay [1] and 250 to 1000 nM in assay [2].

For `COc1ncc(-c2n[nH]c3cc4c(cc23)CN([C@@H]2CCCN(Cc3ccccc3)C2)C(=O)N4)cn1` [Example 104], the IC50 in assay [1] and in assay [2] was at most 250 nM in each case.

For the compound `[2H]C([2H])(c1ccccc1)N1CCC[C@@H](N2Cc3cc4c(-c5ccnc(C)c5)n[nH]c4cc3NC2=O)C1` [Example 148], the IC50 in assay [1] and in assay [2] was at most 250 nM in each case.

Take `Cc1cc(-c2n[nH]c3cc4c(cc23)CN(CCNCc2ccccc2)C(=O)N4)ccn1` [Example 149]: the IC50 in assay [1] was 250 to 1000 nM; in assay [2], at most 250 nM. Consider `Cc1cc(-c2n[nH]c3cc4c(cc23)CN([C@@H]2CCCN(Cc3ccc(F)cc3)C2)C(=O)N4)ccn1` [Example 151], for which the IC50 is over 1000 nM in assay [1] and at most 250 nM in assay [2].

`Cc1cc(-c2n[nH]c3cc4c(cc23)CN([C@@H]2CCN(CCc3ccccc3)C2)C(=O)N4)ccn1` [Example 153]: the IC50 in assay [1] and in assay [2] was at most 250 nM each time.

As for `Cc1cc(-c2n[nH]c3cc4c(cc23)CN([C@@H]2CCCN(C(C)c3ccccc3)C2)C(=O)N4)ccn1` (stereo partly drawn) [Example 154], the IC50 in assay [1] and in assay [2] was at most 250 nM throughout. For the compound `Cc1cc(-c2n[nH]c3cc4c(cc23)CN([C@@H]2CCCN(Cc3cccc(Cl)c3)C2)C(=O)N4)ccn1` [Example 156], the IC50 in assay [1] and in assay [2] was at most 250 nM in each case. On to `Cc1cc(-c2n[nH]c3cc4c(cc23)CN([C@@H]2CCCN(Cc3ccccc3Cl)C2)C(=O)N4)ccn1` [Example 158], for which the IC50 in assay [1] and in assay [2] was at most 250 nM in each case.

Consider `COc1cccc(F)c1CN1CC[C@@H](N2Cc3cc4c(-c5ccnc(C)c5)n[nH]c4cc3NC2=O)C1` [Example 162], for which the IC50 in assay [1] and in assay [2] was at most 250 nM in each case. Turning to `Cc1cc(-c2n[nH]c3cc4c(cc23)CN([C@@H]2CCCN(Cc3cccc(F)c3)C2)C(=O)N4)ccn1` [Example 184], the IC50 in assay [1] and in assay [2] was at most 250 nM in each case. Regarding `Cc1cc(-c2n[nH]c3cc4c(cc23)CN([C@@H]2CCCN(Cc3cccc(F)c3F)C2)C(=O)N4)ccn1` [Example 185], the IC50 in assay [1] and in assay [2] was at most 250 nM throughout. As to `Cc1cc(-c2n[nH]c3cc4c(cc23)CN([C@@H]2CCCN(Cc3cc(F)ccc3F)C2)C(=O)N4)ccn1` [Example 187], the IC50 in assay [1] and in assay [2] was at most 250 nM throughout. As to `Cc1cc(-c2n[nH]c3cc4c(cc23)CN(CC2CCOCC2)C(=O)N4)ccn1` [Example 211], the results for the IC50 in assay [1] and in assay [2] were at most 250 nM and 250 to 1000 nM, respectively. Taken in the same sequence, the figures for `Cc1cc(-c2n[nH]c3cc4c(cc23)CN(CC2CCCC2)C(=O)N4)ccn1` [Example 212] were at most 250 nM and at most 250 nM.

With `Cc1cc(-c2n[nH]c3cc4c(cc23)CN(CC2CCCCC2)C(=O)N4)ccn1` [Example 213], the IC50 in assay [1] and in assay [2] was at most 250 nM throughout. Take `Cc1cc(-c2n[nH]c3cc4c(cc23)CN([C@@H]2CCCN(C(C)C(F)(F)F)C2)C(=O)N4)ccn1` (stereo partly drawn) [Example 216]: the IC50 in assay [1] is at most 250 nM; in assay [2] it was 250 to 1000 nM. As for `Cc1cc(-c2n[nH]c3cc4c(cc23)CN(C2CCC(F)(F)CC2)C(=O)N4)ccn1` [Example 224], the IC50 was at most 250 nM in assay [1] and 250 to 1000 nM in assay [2]. Take `Cc1cc(-c2n[nH]c3cc4c(cc23)CN(Cc2cc(F)cc(F)c2)C(=O)N4)cc(C)n1` [Example 225]: the IC50 in assay [1] and in assay [2] was at most 250 nM throughout.

`Cc1cc(-c2n[nH]c3cc4c(cc23)CN(Cc2ccc(F)c(Cl)c2)C(=O)N4)cc(C)n1` [Example 226]: the IC50 in assay [1] is at most 250 nM; in assay [2], 250 to 1000 nM. With `Cc1cc(-c2n[nH]c3cc4c(cc23)CN(Cc2cccs2)C(=O)N4)cc(C)n1` [Example 227], the IC50 is at most 250 nM in assay [1] and 250 to 1000 nM in assay [2].

As to `Cc1cc(-c2n[nH]c3cc4c(cc23)CN(Cc2nc(C)c(C)s2)C(=O)N4)ccn1` [Example 228], the IC50 in assay [1] is at most 250 nM; in assay [2], 250 to 1000 nM.

As for `Cc1cc(-c2n[nH]c3cc4c(cc23)CN(Cc2ccccc2)C(=O)N4)cc(C)n1` [Example 229], the IC50 was at most 250 nM in assay [1] and 250 to 1000 nM in assay [2]. Consider `O=C1Nc2cc3[nH]nc(-c4ccc(N5CCOCC5)nc4)c3cc2CN1Cc1cccc(Cl)c1` [Example 231], for which the IC50 in assay [1] was at most 250 nM; in assay [2], 250 to 1000 nM. For the compound `Cc1cc(-c2n[nH]c3cc4c(cc23)CN(C(C)c2nccs2)C(=O)N4)ccn1` (stereo not drawn) [Example 234], the IC50 in assay [1] was at most 250 nM; in assay [2], 250 to 1000 nM. On to `Cc1cc(-c2n[nH]c3cc4c(cc23)CN([C@@H]2CCN(CC(F)(F)F)C2)C(=O)N4)cc(C)n1` [Example 237], for which the IC50 in assay [1] and in assay [2] was at most 250 nM throughout.

For `Cc1cc(-c2n[nH]c3cc4c(cc23)CN(C2CCCC2)C(=O)N4)cc(C)n1` [Example 239], the IC50 in assay [1] and in assay [2] was at most 250 nM throughout. For the compound `Cc1cc(-c2n[nH]c3cc4c(cc23)CN(Cc2cccc(C(F)(F)F)c2)C(=O)N4)ccn1` [Example 240], the IC50 in assay [1] and in assay [2] was at most 250 nM in each case.

Take `Cc1cc(-c2n[nH]c3cc4c(cc23)CN([C@@H]2CN(CC(F)(F)F)C[C@H]2c2ccccc2)C(=O)N4)cc(C)n1` [Example 242]: the IC50 in assay [1] was at most 250 nM; in assay [2] it was 250 to 1000 nM. With `Cc1cc(-c2n[nH]c3cc4c(cc23)CN(C2CCC2)C(=O)N4)ccn1` [Example 243], the IC50 in assay [1] and in assay [2] was at most 250 nM in each case. With `Cc1cc(-c2n[nH]c3cc4c(cc23)CN([C@@H]2CCCN(CC(F)(F)F)C2)C(=O)N4)cc(C)n1` [Example 244], the IC50 in assay [1] and in assay [2] was at most 250 nM throughout. As to `Cn1cc(-c2n[nH]c3cc4c(cc23)CN([C@@H]2CN(CC(F)(F)F)C[C@H]2c2ccccc2)C(=O)N4)cn1` [Example 352], the IC50 in assay [1] is at most 250 nM. Take `CC(c1ccccc1)c1cc2cc3c(N4CCN(C)CC4)n[nH]c3cc2[nH]c1=O` (stereo not drawn) [Example 358]: the IC50 in assay [1] is over 1000 nM. On to `Cc1cc(-c2n[nH]c3cc4[nH]c(=O)c(C5CCCN(Cc6ccccc6)C5)cc4cc23)cc(C)n1` (stereo not drawn) [Example 360], for which, in assay [1], the IC50 is 250 to 1000 nM. As to `Cc1cc(-c2n[nH]c3cc4c(cc23)CN([C@H]2CCCN(Cc3ccccc3)C2)C(=O)N4)cc(C)n1` [Example 363], in assay [1], the IC50 was over 1000 nM. For `COc1ncc(-c2n[nH]c3cc4c(cc23)CN([C@H]2CCCN(Cc3ccccc3)C2)C(=O)N4)cn1` [Example 365], the IC50 in assay [1] is over 1000 nM.

On to `COc1cc(-c2n[nH]c3cc4[nH]c(=O)c(C5CCCN(Cc6ccccc6)C5)cc4cc23)ccn1` (stereo not drawn) [Example 370], for which the IC50 in assay [1] is at most 250 nM. Regarding `Cc1cc(-c2n[nH]c3cc4c(cc23)CN(Cc2ccccc2)C(=O)N4)ccn1` [Example 372], in assay [1], the IC50 was at most 250 nM. Turning to `Cc1ccc(-c2n[nH]c3cc4[nH]c(=O)c(C5CCCN(Cc6ccccc6)C5)cc4cc23)cn1` (stereo not drawn) [Example 373], in assay [1], the IC50 is 250 to 1000 nM.

Consider `Cc1cc(-c2n[nH]c3cc4c(cc23)CN([C@H]2CN(CC(F)F)C[C@@H]2c2ccccc2)C(=O)N4)ccn1` [Example 383], for which the IC50 in assay [1] is over 1000 nM.

Take `Cc1cc(-c2n[nH]c3cc4c(cc23)CN([C@H]2CN(CC(F)F)C[C@@H]2c2ccccc2)C(=O)N4)cc(C)n1` [Example 385]: the IC50 in assay [1] is over 1000 nM. Regarding `Cc1cc(-c2n[nH]c3cc4c(cc23)CN([C@@H]2CN(CC(F)F)C[C@H]2c2ccccc2)C(=O)N4)cc(C)n1` [Example 386], the IC50 in assay [1] is at most 250 nM.

The values are drawn from US10301317B2, “Inhibitors of ERK and methods of use” (Kura Oncology, Inc., priority 2013, dated 2019).
